Data as given in patent US20140100290A1, “Method of treating a prostate condition” (priority 2012, published 2014).

Test system: cytochrome c release in LNCaP cells
Assay: Western blot analysis of cytochrome c release in LNCaP cells
Assay type: cell-based, Human
Settings: 10 μM and 1000 μM, 48 h
Protocol: Human metastatic prostate cancer cells, LNCaP, were obtained from ATCC (Manassas, Va., USA). Cells were grown in RPMI-1640 medium supplemented with 2mM glutamine, 10% FBS, 100 U/mL penicillin, and 100 μg/mL streptomycin. LNCaP cells were maintained in a humidified atmosphere of 5% CO2 at 37° C. in T-75 flasks and were subcultured when confluent. Experiments were conducted using cells with passage numbers ranging from 5-20.
Western blotting is a widely used analytical technique for detection of specific proteins separated from one another, according to their size, by gel electrophoresis. Application of an electric current induces proteins on the gel to move on to the membrane (nitrocellulose or PVDF) placed next to it. Proteins on the gel get transferred on to the membrane which is subsequently stained with the antibody. Once detected, the target protein will be visualized as a band on a blotting membrane, X-ray film, or an imaging system. […]
After maintaining constant agitation at 4° C. for 30 minutes, lysates were collected in microcentrifuge tubes and centrifuged at 12,000 rpm at 4° C. for 20 minutes. […] Protein concentration was determined using the Pierce® BCA protein assay kit. […] Western blot images are representative of at least 3 independent experiments, while quantification data represent mean±S.E.M. of n>3 experiments.

In the case of `Cc1ccc(C(C)C)cc1O` [Carvacrol], the “cytochrome c release (Western blot, densitometry vs solvent control)” value was “dose-dependent increase in cytochrome c release”.
